Reference: EP4725957A1, “GROUP OF CYCLIC ALKALINE LIPOPEPTIDE COMPOUNDS, AND PREPARATION METHOD THEREFOR AND USE THEREOF” (Institute of Medicinal Biotechnology, Chinese Academy of …, priority 2023, dated 2024)
Converted amounts (≈) assume the structure as drawn. Bridge positions count the residues as written; N and C are the ends. Square brackets hold non-standard residues; d marks the D form. Peptide text beside a SMILES is read from it. * marks the point of attachment. Dab(CH2SO3H) = N[C@@H](CCNCS(=O)(=O)O)C(=O)O; Heptanoyl(6-Me) = CC(C)CCCCC(=O)*; dOrn = NCCC[C@@H](N)C(=O)O; Nonanoyl = CCCCCCCCC(=O)*; dDab = NCC[C@@H](N)C(=O)O; Heptanoyl = CCCCCCC(=O)*; Orn = NCCC[C@H](N)C(=O)O; Dab = NCC[C@H](N)C(=O)O; Dap = NC[C@H](N)C(=O)O

How the values were obtained:
Type in all cases: cell-based
[1] = test system: Acinetobacter baumannii ABA19-1; details: ABA19-1
Description: (§1) The minimal inhibitory concentration (MIC) was determined by the broth microdilution method according to the recommended procedures of the Clinical and Laboratory Standards Institute (CLSI).
(§2) An appropriate amount of the cyclic lipopeptide compounds prepared in Examples 1-120 and the reference standards were weighed and dissolved in sterile pure water. An appropriate volume of the mother solution was subjected to ten-fold dilution with sterile Mueller-Hinton (MH) broth to a concentration of 0.256 mg/mL. Half of the drug solution was aliquoted into 96-well reagent reservoirs, while the other half was subjected to two-fold serial dilution with sterile MH broth before being transferred into deep-well reagent reservoirs. The above steps were repeated, so that the drug concentrations in the reagent reservoirs were adjusted to 128, 64, 32, 16, 8, 4, 2, 1, 0.5, 0.25, 0.125 and 0.06 mg/L in sequence, and all solutions were prepared and used immediately. Several colonies were picked from agar plates cultured for 18-24 h and directly suspended in sterile normal saline, and the concentration of the bacterial suspension was adjusted to 0.5 McFarland units. The calibrated bacterial suspension was diluted with MH broth to a concentration of (4-8) × 10^5 colony-forming units per milliliter (CFU/mL) and prepared and used immediately. A volume of 100 µL of the aforementioned compounds of the present disclosure (e.g., the compounds prepared in the examples) and reference solutions at different concentrations was separately pipetted into wells 1 to 12 of sterile 96-well polystyrene plates, and an additional 100 µL of the aforementioned inoculum was added to each well. The final concentrations of the samples in the wells were adjusted to 64, 32, 16, 8, 4, 2, 1, 0.5, 0.25, 0.125, 0.06 and 0.03 mg/L, respectively, and the final concentration of the inoculum in each well was (2-4) × 10^5 CFU/mL. Additional growth control wells were set up, each containing 100 µL of the inoculum and 100 µL of sterile MH broth. The test substances and inocula in all wells were mixed thoroughly and then sealed. The inoculated 96-well plates were incubated in an incubator at 35-37°C for 16-20 h.
(§3) The strains used for the antibacterial activity assay were obtained from the American Type Culture Collection (ATCC) and clinical isolates.
(§4) The strains employed for the antibacterial activity assay included Escherichia coli ATCC BAA-2523, ATCC BAA-2340 (KPC), Klebsiella pneumoniae KPN+19-15, ATCC BAA-1705 (KPC), Pseudomonas aeruginosa PAE19-3, ATCC 27853, Acinetobacter baumannii ABA19-1, and NCTC 13304 (OXA-27).

[2] = test system: Acinetobacter baumannii NCTC 13304 (OXA-27); details: NCTC 13304
Description: as §1, §2, §3, §4

[3] = test system: Escherichia coli ATCC BAA-2340 (KPC); details: ATCC BAA-2340
Description: as §1, §2, §3, §4

[4] = test system: Escherichia coli ATCC BAA-2523; details: ATCC BAA-2523
Description: as §1, §2, §3, §4

[5] = test system: Klebsiella pneumoniae ATCC BAA-1705 (KPC); details: ATCC BAA-1705
Description: as §1, §2, §3, §4

[6] = test system: Klebsiella pneumoniae KPN+19-15; details: KPN+19-15
Description: as §1, §2, §3, §4

[7] = test system: Pseudomonas aeruginosa ATCC 27853; details: ATCC 27853
Description: as §1, §2, §3, §4

[8] = test system: Pseudomonas aeruginosa PAE19-3; details: PAE19-3
Description: as §1, §2, §3, §4

[9] = Nephrotoxicity assay: in vitro cytotoxicity of HK-2 cells by CCK-8 assay; details: human, HK-2 cells (human renal), 72 h incubation with drug-containing medium
Description: In vitro cytotoxicity detection of HK-2 cells was performed by the CCK-8 assay.
The culture medium for human renal HK-2 cells was a complete RPMI-1640 medium (Invitrogen) supplemented with 10% fetal bovine serum (FBS, Gibco). The cryopreservation solution was composed of 90% FBS and 10% dimethyl sulfoxide (DMSO), and the cells were preserved long-term in liquid nitrogen. Cells were cultured in a sterile incubator with a humidified atmosphere containing 5% CO2 at 37°C. When the cell density reached 70%-80%, cell digestion and subculture were conducted. The cyclic lipopeptide compounds prepared in Examples 1-120 were weighed and dissolved in sterile water to prepare a mother solution with a concentration of 1 mg/mL. Drug-containing culture media were then formulated, with the final concentrations set as 500, 250, 200, 100, 50, 25, and 12.5 µg/mL, respectively. Cells were adjusted to a density of 5 × 10^4 cells/mL and seeded into 96-well plates, with 100 µL of cell suspension added to each well. After stable incubation for 24 h, the original medium was replaced with the prepared drug-containing medium, and the plates were incubated in the incubator for an additional 72 h. The medium was gently aspirated, and 100 µL of blank medium containing 10% CCK-8 was added to each well. After incubation in the incubator for 3 h, the optical density (OD) values at 450 nm were measured using a BIOTEK microplate reader. The experiment was repeated three times. For each replicate, polymyxin B was set as the positive drug, and a drug-free blank group was established as the control. The cell viability (%) was calculated by the formula: Cell viability (%) = [(OD of drug-treated group - OD of zero-setting) / (OD of drug-free group - OD of zero-setting)] × 100%. The half-maximal inhibitory concentration (IC50) values were calculated through logarithmic regression analysis.
The cells used for the nephrotoxicity assay were obtained from the ATCC ( American Type Culture Collection). The Cell Counting Kit-8 (CCK-8) used in the assay was supplied by Beyotime Biotechnology Co., Ltd.

Row | SMILES | MIC [1] | MIC [2] | MIC [3] | MIC [4] | MIC [5] | MIC [6] | MIC [7] | MIC [8] | IC50 at 72 h [9]
1 | CC(C)CCCCC(=O)N[C@@H](CCN)C(=O)N[C@H](C(=O)N[C@@H](CN)C(=O)N[C@H]1CCNC(=O)[C@H]([C@@H](C)O)NC(=O)[C@H](CCNCS(=O)(=O)O)NC(=O)[C@H](CCN)NC(=O)[C@H]([C@@H](C)O)NC(=O)[C@@H](Cc2ccccc2)NC(=O)[C@H](CCN)NC1=O)[C@@H](C)O [Compound 120, 6-methylheptanoyl-Dab-Thr-Dap-ring(4-10)[Dab-Dab-D-Phe-Thr-Dab-Dab(CH2SO3H)-Thr]] ({Heptanoyl(6-Me)}-[Dab]T[Dap][Dab][Dab][dF]T[Dab][Dab(CH2SO3H)]T; lactam 4-C) | 0.25 µg/mL (≈ 0.199 µM) | 0.06 µg/mL (≈ 0.0477 µM) | 0.06 µg/mL (≈ 0.0477 µM) | 0.06 µg/mL (≈ 0.0477 µM) | 0.125 µg/mL (≈ 0.0994 µM) | 0.125 µg/mL (≈ 0.0994 µM) | 0.25 µg/mL (≈ 0.199 µM) | 0.5 µg/mL (≈ 0.398 µM) | > 500 µg/mL
2 | CCCCCCC(=O)N[C@@H](CN)C(=O)N[C@H](C(=O)N[C@H](CCN)C(=O)N[C@H]1CCNC(=O)[C@H]([C@@H](C)O)NC(=O)[C@H](CCN)NC(=O)[C@H](CCN)NC(=O)[C@H](CC(C)C)NC(=O)[C@@H](Cc2ccccc2)NC(=O)[C@H](CCN)NC1=O)[C@@H](C)O [Compound 94, Heptanoyl-Dap-Thr-D-Dab-ring(4-10)[Dab-Dab-D-Phe-Leu-Dab-Dab-Thr]] (Heptanoyl-[Dap]T[dDab][Dab][Dab][dF]L[Dab][Dab]T; lactam 4-C) | 0.03 µg/mL (≈ 0.0258 µM) | 0.03 µg/mL (≈ 0.0258 µM) | 0.06 µg/mL (≈ 0.0517 µM) | 0.06 µg/mL (≈ 0.0517 µM) | 0.03 µg/mL (≈ 0.0258 µM) | 0.03 µg/mL (≈ 0.0258 µM) | 1 µg/mL (≈ 0.861 µM) | 1 µg/mL (≈ 0.861 µM) | 298 ± 30.7 µg/mL (≈ 257 µM)
3 | CC(C)CCCCC(=O)N[C@@H](CCN)C(=O)N[C@H](C(=O)N[C@@H](CCCN)C(=O)N[C@H]1CCNC(=O)[C@H]([C@@H](C)O)NC(=O)[C@H](CCN)NC(=O)[C@H](CCN)NC(=O)[C@H]([C@@H](C)O)NC(=O)[C@@H](Cc2ccccc2)NC(=O)[C@H](CCN)NC1=O)[C@@H](C)O [Compound 27, 6-methylheptanoyl-Dab-Thr-Orn-ring(4-10)[Dab-Dab-D-Phe-Thr-Dab-Dab-Thr]] ({Heptanoyl(6-Me)}-[Dab]T[Orn][Dab][Dab][dF]T[Dab][Dab]T; lactam 4-C) | 0.125 µg/mL (≈ 0.105 µM) | 0.06 µg/mL (≈ 0.0504 µM) | ≤0.03 µg/mL | ≤0.03 µg/mL | ≤0.03 µg/mL | ≤0.03 µg/mL | ≤0.03 µg/mL | 0.25 µg/mL (≈ 0.21 µM) | > 500 µg/mL
4 | CC(C)CCCCC(=O)N[C@@H](CCN)C(=O)N[C@H](C(=O)N[C@@H](CN)C(=O)N[C@H]1CCNC(=O)[C@H]([C@@H](C)O)NC(=O)[C@H](CCN)NC(=O)[C@H](CCN)NC(=O)[C@H]([C@@H](C)O)NC(=O)[C@@H](Cc2ccccc2)NC(=O)[C@H](CCNCS(=O)(=O)O)NC1=O)[C@@H](C)O [Compound 118, 6-methylheptanoyl-Dab-Thr-Dap-ring(4-10)[Dab-Dab(CH2SO3H)-D-Phe-Thr-Dab-Dab-Thr]] ({Heptanoyl(6-Me)}-[Dab]T[Dap][Dab][Dab(CH2SO3H)][dF]T[Dab][Dab]T; lactam 4-C) | 0.25 µg/mL (≈ 0.199 µM) | 0.06 µg/mL (≈ 0.0477 µM) | 0.06 µg/mL (≈ 0.0477 µM) | 0.06 µg/mL (≈ 0.0477 µM) | 0.125 µg/mL (≈ 0.0994 µM) | 0.125 µg/mL (≈ 0.0994 µM) | 0.25 µg/mL (≈ 0.199 µM) | 0.5 µg/mL (≈ 0.398 µM) | > 500 µg/mL
5 | CCCCCCCCC(=O)N[C@@H](CCN)C(=O)N[C@H](C(=O)N[C@H](CO)C(=O)N[C@H]1CCNC(=O)[C@H]([C@@H](C)O)NC(=O)[C@H](CN)NC(=O)[C@H](CCN)NC(=O)[C@H]([C@@H](C)O)NC(=O)[C@@H](Cc2ccccc2)NC(=O)[C@H](CCN)NC1=O)[C@@H](C)O [Compound 85, Nonanoyl-Dab-Thr-D-Ser-ring(4-10)[Dab-Dab-D-Phe-Thr-Dab-Dap-Thr]] (Nonanoyl-[Dab]T[dS][Dab][Dab][dF]T[Dab][Dap]T; lactam 4-C) | 0.06 µg/mL (≈ 0.0515 µM) | 0.03 µg/mL (≈ 0.0258 µM) | 0.25 µg/mL (≈ 0.215 µM) | 0.25 µg/mL (≈ 0.215 µM) | 0.25 µg/mL (≈ 0.215 µM) | 0.5 µg/mL (≈ 0.429 µM) | >64 µg/mL | 64 µg/mL (≈ 55 µM) | 357 ± 28.8 µg/mL (≈ 307 µM)
6 | CC(C)CCCCC(=O)N[C@@H](CCN)C(=O)N[C@H](C(=O)N[C@H](CO)C(=O)N[C@H]1CCNC(=O)[C@H]([C@@H](C)O)NC(=O)[C@H](CCN)NC(=O)[C@H](CN)NC(=O)[C@H]([C@@H](C)O)NC(=O)[C@@H](Cc2ccccc2)NC(=O)[C@H](CCN)NC1=O)[C@@H](C)O [Compound 72, 6-methylheptanoyl-Dab-Thr-D-Ser-ring(4-10)[Dab-Dab-D-Phe-Thr-Dap-Dab-Thr]] ({Heptanoyl(6-Me)}-[Dab]T[dS][Dab][Dab][dF]T[Dap][Dab]T; lactam 4-C) | 0.06 µg/mL (≈ 0.0522 µM) | ≤0.03 µg/mL | ≤0.03 µg/mL | ≤0.03 µg/mL | 0.25 µg/mL (≈ 0.217 µM) | 0.5 µg/mL (≈ 0.435 µM) | >64 µg/mL | 64 µg/mL (≈ 55.6 µM) | > 500 µg/mL
7 | CCCCCCCCC(=O)N[C@@H](CCN)C(=O)N[C@H](C(=O)N[C@H](CCCN)C(=O)N[C@H]1CCNC(=O)[C@H]([C@@H](C)O)NC(=O)[C@H](CCN)NC(=O)[C@H](CCN)NC(=O)[C@H]([C@@H](C)O)NC(=O)[C@@H](Cc2ccccc2)NC(=O)[C@H](CCN)NC1=O)[C@@H](C)O [Compound 25, Nonanoyl-Dab-Thr-D-Orn-ring(4-10)[Dab-Dab-D-Phe-Thr-Dab-Dab-Thr]] (Nonanoyl-[Dab]T[dOrn][Dab][Dab][dF]T[Dab][Dab]T; lactam 4-C) | 0.125 µg/mL (≈ 0.104 µM) | 0.06 µg/mL (≈ 0.0498 µM) | ≤0.03 µg/mL | ≤0.03 µg/mL | 0.06 µg/mL (≈ 0.0498 µM) | 0.125 µg/mL (≈ 0.104 µM) | 0.5 µg/mL (≈ 0.415 µM) | 2 µg/mL (≈ 1.66 µM) | 338 ± 15.1 µg/mL (≈ 280 µM)
